For eleven molecules, inhibition results are on record in patent US4379150A, “Dibenz[b,f][1,4]oxazepine derivatives, process for preparing the same, and pharmaceutical compositions comprising the same” (Chugai Seiyaku Kabushiki Kaisha, priority 1980, dated 1983).

Structures are written as SMILES. Where a name gives a salt, the structure may show the parent alone.

The first test deals with isolated, donor-perfused rat hearts. In words: inhibition of coronary vasoconstriction induced by acetylcholine 0.3 μg in isolated, donor-perfused rat hearts. Conditions: 30 μg, administered in the artery. On the procedure: The effect of the compounds of the present invention to inhibit coronary vasoconstriction was studied. That vasoconstriction was induced by acetylcholine 0.3 μg in isolated, donor-perfused rat hearts (K. Sakai, Brit. J. Pharmacol., 68, 625-638, 1980), and determined by measuring the arterial perfusion pressure with a pressure transducer (Nihon Kohden MPU--0.5). The compounds of the present invention were administered in the artery in an amount between 30 and 60 μg.
The molecule `CCOC(=O)c1ccc2c(c1)N(CCN(C)C)C(=O)c1cc(C(C)C)cc(C(C)C)c1O2` [Comp. of Ex. 1, 2,4-diisopropyl-10[2-(dimethylamino)ethyl]-8-ethoxycarbonyl-dibenz[b,f][1,4] oxazepine-11(10H)-one] displayed an inhibition at 0.03 mg of at least 41%.
In the case of `CC(C)c1cc2c(c(C(C)C)c1)Oc1ccccc1N(CCN(C)C)C2=O` [Comp. of Ex. 2], the inhibition at 0.03 mg lay in the range of 31 to 40%.
The same measure, in the same setting: the value for `CC(C)c1cc2c(c(C(C)C)c1)Oc1ccccc1N(CCCN(C)C)C2=O` [Comp. of Ex. 3] was at least 41%; that for `COc1ccc2c(c1)N(CCCN(C)C)C(=O)c1cc(C(C)C)cc(C(C)C)c1O2` [Comp. of Ex. 5] was 20 to 30%; that for `CCOC(=O)c1ccc2c(c1)N(CCN(C)C)C(=O)c1cc(C(C)(C)CC)ccc1O2` [Comp. of Ex. 8] was 31 to 40%.
On to `CCOC(=O)c1ccc2c(c1)N(CCCN(C)C)C(=O)c1cc(C(C)(C)CC)ccc1O2` [Comp. of Ex. 9], for which the inhibition at 0.03 mg is at least 41%.
As to `CCC(C)(C)c1ccc2c(c1)C(=O)N(CCCN(C)C)c1ccccc1O2` [Comp. of Ex. 10], the inhibition at 0.03 mg lay within 20 to 30%.
The molecule `CCOC(=O)c1ccc2c(c1)N(CCCN(C)C)C(=O)c1cc(C(C)C)cc(C(C)C)c1O2` [Comp. of Ex. 14] had an inhibition at 0.03 mg of 31 to 40%.
Take `CC(C)c1cc2c(c(C(C)C)c1)Oc1ccc(C(=O)O)cc1N(CCN(C)C)C2=O` [Comp. of Ex. 15, 2,4-diisopropyl-10-[2-(dimethylamino)ethyl]-8-carboxy-dibenz[b,f][1,4]-oxazepine-11(10H)-one hydrochloride]: the inhibition at 0.03 mg fell in the range of 20 to 30%.
`CC(C)c1cc2c(c(C(C)C)c1)Oc1ccc(C(N)=O)cc1N(CCN(C)C)C2=O` [Comp. of Ex. 17, 2,4-diisopropyl-10-[2-(dimethylamino)ethyl]-8-carbamoyl-dibenz[b,f][1,4]oxazepine-11(10H)-one] showed an inhibition at 0.03 mg of 20 to 30%.

The same test, now with this note: 60 μg, administered in the artery.
Molecule `COc1ccc2c(c1)N(CCN(C)C)C(=O)c1cc(C(C)C)cc(C(C)C)c1O2` [Comp. of Ex. 4] gave an inhibition at 0.06 mg of 20 to 30%.
